Data reported in article PMC7471840, “Autoantigens PLA2R and THSD7A in membranous nephropathy share a common epitope motif in the N-terminal domain” (Journal of Autoimmunity, 2020).

Assays:
[1] = test system: affinity purified anti-P28mer (PLA2R autoantibodies); test: BLI of affinity purified anti-P28mer; type: binding, human; details: immobilized peptide, antibodies eluted from P28mer beads, normalized to blank beads
Protocol: (§1) 2 mg of MyOne™ carboxylic acid dynabeads per condition (Invitrogen, UK) were activated using 18.75 mg/ml EDC (N-3-dimethylaminopropyl- N′-ethylcarbodiimide hydrochloride, Sigma-Aldrich). 800 μg/ml of recombinant PLA2R fragment (NC3) and peptides (P28mer, T28mer or T28mer scrambled peptide) diluted in 15 mM MES buffer pH 6 were covalently immobilized overnight at 4 °C. The conditioned beads were then deactivated using 1 M ethanolamine (Bio-Rad) for 1 h. Pooled anti-THSD7A positive MN patient sera were diluted 1:50 in PBS-T and incubated (overnight at 4 °C with agitation) with 1 mg of either blank immobilized, T28mer immobilized or T28mer scrambled peptide immobilized magnetic beads. Pooled anti-PLA2R positive MN patient sera were similarly diluted and incubated with blank immobilized, PLA2R antigen immobilized or P28mer immobilized magnetic beads. Magnetic beads from all conditions were then precipitated, the supernatants removed, and washed three times in PBS-T. Bound antibodies were eluted with 0.1 M glycine pH 2.2 and the eluates from each condition were neutralized using 1 M TrisHCl pH 8. The affinity-purified eluate from each condition was then evaluated for binding to the P28mer and T28mer by BLI. The BLI analysis was executed as stated in section 2.9.1.1. with modification of the running buffer. […]

Moab 20-2-6 [2] = test: SPR kinetics of Moab 20-2-6 on immobilized peptides; type: binding, mouse; details: ProteOn XPR36, peptide immobilized on GLC chip, Moab 20-2-6 at 25-5 nM, Langmuir 1:1 with mass transfer, printed in Fig. 4B
Description: Hybridoma production was undertaken by Proteogenix SAS (Schiltigheim, France). Mice were immunized with a fragment of human PLA2R protein (namely NC3, comprising the first five extracellular domains, CysR-FnII-CTLD1-CTLD2-CTLD3). Following fusion of spleen cells, 34 positive supernatants were found when screened by ELISA on the NC3 protein. Ten of the original 34 positive supernatants were taken forward for cloning. Following subcloning, 5 of 10 clones were selected for purification of monoclonal antibody which included antibody 20-2-6.
Kinetics were determined using a ProteOn XPR36 (Bio-Rad, Watford, UK). The P28mer and T28mer peptides were diluted to 200 μg/ml in 10 mM sodium acetate, pH 4.5, and immobilized on a ProteOn GLC sensor chip using standard amine coupling chemistry. […] Moab 20-2-6 was diluted to 25, 20, 15, 10, 5 nM in HEPES-T and injected for 120 s at 70 μl/min. The injection was stopped and dissociation phase measured for 800s. Buffer only and a blank immobilized lanes were used as controls and subtracted. The GLC sensor was regenerated in 10 mM NaOH with two successive injections. Kinetics were determined by fitting to a Langmuir 1:1 interaction model.

[3] = Circular dichroism of the epitope peptides; type: physicochemical; details: 0.5 mg/ml; for turn content / unordered content / α-helix content / β-sheet content: CD far-UV 190–260 nm, milliQ water, 0.05-cm path, average of 10 accumulations, BeStSel
Protocol: Lyophilized peptides were reconstituted in milliQ water to a concentration of 2.5 mg/ml and diluted to 0.5 mg/ml. CD Far-UV (190–260 nm) spectra were recorded using a Jasco-810 spectropolarimeter. Measurements were taken every 0.2 nm in a 0.05-cm path length cell. Spectra were corrected for buffer absorbance and represent an average of 10 accumulations. Spectra were recorded in millidegrees and converted to mean residue ellipticities using the following equation deltaE = mdeg x (0.1 x mrw)/path x conc_mg/ml x 3298 (where P28mer mrw = 109.5, T28mer mrw = 107.9). Estimation of secondary structure content was then performed using BeStSel software program.

[4] = test system: sera from ANCA vasculitis patients; test: Slot blotting with ANCA vasculitis sera; type: binding, human; details: slot blot, non-reducing; 1 μg peptide; pool of 5 sera, 1:100
Protocol: (§2) PLA2R, CysR domain, THSD7A (R&D Systems) and TSR1 protein samples (1 μg per lane) were resolved using 4–12% BisTris gradient gels with the MES buffer system, transferred to nitrocellulose membranes and blotted using patient sera (1:100 dilution) followed by incubation with Alexa Fluor® 680-AffiniPure Goat Anti-Human IgG, Fcγ Fragment Specific (min X Bov,Hrs,Ms Sr Prot) (1:10,000 dilution; Jackson Labs). Proteins were also analyzed using Moab 20-2-6, a monoclonal anti-PLA2R mouse antibody raised against a PLA2R fragment (see 2.4.1 for further details) at dilution 1:5000. Protein bands were visualized using an Odyssey Imaging System (LI-COR) at 700 nm and the intensity settings were kept constant for all blots allowing comparison. For slot blotting, 1 μg of proteins or peptides (P28mer aa38–65 and T28mer aa75-102 synthesized by ProImmune Ltd, Oxford, UK) were blotted directly onto nitrocellulose membrane and vacuum applied. For the reducing condition, samples were diluted in 10 mM Tris pH 8 then reduced and alkylated by sequential incubation with 50 mM DTT for 1 h at 37 °C and then with 125 mM iodoacetamide for 20 min in the dark. The reduced samples along with unreduced were blotted as described above.
(§3) Fig.6 - Slot blot analysis of sera from IgAN and
(§4) Hu anti-IgAN Hu anti-ANCA Ponceau
(§5) CysR P28sc CysR P28sc CysR P28sc […]

[5] = test system: affinity purified anti-T28mer (THSD7A autoantibodies); test: BLI of affinity purified anti-T28mer; type: binding, human; details: immobilized peptide, antibodies from anti-THSD7A sera eluted from T28mer beads, normalized to blank beads
Protocol: as §1

anti-PLA2R positive sera = test: Slot blotting with anti-PLA2R positive sera; type: binding, human; details: non-denaturing; 1 μg protein/peptide; sera 1:100; Fig. 2D
Protocol: as §2

[6] = test system: affinity purified antibodies from PLA2R positive sera against PLA2R antigen; test: BLI of affinity purified anti-PLA2R (against PLA2R antigen); type: binding, human; details: immobilized peptide, antibodies eluted from PLA2R antigen beads (positive control)
Protocol: as §1

[7] = test system: PLA2R autoantibodies in anti-PLA2R positive MN patient sera; test: BLI off-rate of MN patient sera, anti-PLA2R positive sera on immobilized peptides; type: binding, human; details: Octet Red, peptide immobilized on AR2G sensor, sera 1:100 in HEPES-T sera (10 mM HEPES, 150 mM NaCl, 0.05% Tween-20, 0.5% control sera), association 450s, dissociation 1200s, Hill fit, ten anti-PLA2R positive sera
Protocol: (§6) BLI experiments were conducted using an Octet Red (ForteBio, Nottingham, UK). P28mer and T28mer were diluted to 200 μg/ml in 10 mM sodium acetate, pH 4.5, and immobilized on an Octet AR2G sensor (ligand densities of 1.2 nm and 1.4 nm respectively). Patient sera were diluted 1:100 in HEPES-T sera (10 mM HEPES, 150 mM NaCl, 0.05% Tween-20 and 0.5% of a pool of human control sera). Three control normal sera were incorporated in the running buffer in order to provide the baseline binding (i.e. normalize the binding due to any spurious interaction) and allowing quantification of binding above this background. […] Sensors were incubated in MN sera for 450s (association phase) followed by HEPES-T sera for 1200s (dissociation phase). Regeneration was performed in 10 mM NaOH with three successive incubations. The peptide immobilized sensors responses to MN patient sera were calibrated against non-specific binding of each sensor to the HEPES-T sera buffer. The data were fitted to a Hill-1 plot with the inverse k value equivalent to the off rates (koff). Statistical analysis was performed using two way ANOVA multiple comparison or paired t-test as stated in the figure legends. p values of <0.05 were considered significant.

Moab 20-2-6 [8] = test: Slot blotting of peptides with Moab 20-2-6; type: binding, mouse; details: non-reducing, 1 μg peptide, antibody 1:5000
Protocol: as §2
(§7) Fig.10 – Specificity of Moab 20-2-6 to P28mer and T28mer.
(§8) Slot blot analysis of unrelated mouse monoclonal
(§9) Moab anti-Transferrin secondary only control […]

[9] = test system: unrelated mouse monoclonal raised against transferrin receptor; test: Slot blotting of peptides with unrelated mouse monoclonal; type: binding; details: slot blot, non-reducing; 1 μg peptide; antibody 1:5000
Protocol: as §2, §7, §8, §9

[10] = test system: anti-THSD7A positive sera; test: Slot blotting with anti-THSD7A positive sera; type: binding, human; details: for binding of anti-THSD7A positive sera (slot blot): non-denaturing, 1 μg protein/peptide, sera 1:100, Fig. 2D
Protocol: as §2

[11] = test system: sera from IgA Nephropathy (IgAN) patients; test: Slot blotting with IgA Nephropathy sera; type: binding, human; details: slot blot, non-reducing; 1 μg peptide; pool of 5 sera, 1:100
Protocol: as §2, §3, §4, §5

[12] = test system: THSD7A autoantibodies in anti-THSD7A positive MN patient sera; test: BLI off-rate of MN patient sera, anti-THSD7A positive sera on immobilized peptides; type: binding, human; details: for Koff (dissociation rate): BLI, Octet Red, peptide immobilized on AR2G sensor, sera 1:100 in HEPES-T sera (10 mM HEPES, 150 mM NaCl, 0.05% Tween-20, 0.5% control sera), association 450s, dissociation 1200s, Hill fit, ten anti-THSD7A positive sera
Protocol: as §6

binding of affinity purified anti-P28mer [1] | Kd (Moab 20-2-6 [2]) | binding of affinity purified anti-T28mer [5] | reactivity of unrelated mouse monoclonal to peptide [9] | Substance | turn content [3] | unordered content [3] | α-helix content [3] | β-sheet content [3] | binding of ANCA vasculitis sera [4] | binding of anti-PLA2R positive sera (slot blot) (anti-PLA2R positive sera) | binding of affinity purified PLA2R autoantibodies [6] | Koff (dissociation rate) [7] | reactivity of Moab 20-2-6 to peptide (slot blot) (Moab 20-2-6 [8]) | binding of anti-THSD7A positive sera (slot blot) [10] | binding of IgA Nephropathy sera [11] | Koff (dissociation rate) [12] | negative peak in CD spectrum ([3]; CD far-UV) | number of anti-THSD7A sera recognizing the peptide ([10]; native blotting, ten anti-THSD7A sera tested) | preference of sera THSD7A autoantibodies between peptides (by dissociation rates) ([12]; T28mer vs P28mer, Fig. 3B **** p value < 0.001 (two-way ANOVA))
bind to both epitope peptides | 0.0887 nM | bind to both epitope peptides | no reactivity | P28mer: known major PLA2R CysR epitope peptide, aa38-65, synthesized by ProImmune | 21.3% | 45.2% | 12.1% | 21.3% | no binding | reacted with both P28mer and T28mer | bind to both epitope peptides | 0.0028 s⁻¹ | reactivity | reacted with both P28mer and T28mer | no binding | 0.0068 s⁻¹ |  |  | 
bind to both epitope peptides | 0.101 nM | bind to both epitope peptides | no reactivity | T28mer: THSD7A epitope peptide, aa75-102, located in the TSR1 domain, synthesized by ProImmune (GPGGIQTRAVWCAHVEGWTTLHTNCKQA; UniProt Q9UPZ6 75-102, looked up, fragment) | 15% | 46.7% | 6.5% | 31.8% | no binding | reacted with both P28mer and T28mer | bind to both epitope peptides | 0.0009 s⁻¹ | reactivity | reacted with both P28mer and T28mer | no binding | 0.0013 s⁻¹ | around 205 nm | All ten anti-THSD7A sera tested recognized the T28mer peptide | preferentially bind to the T28mer over P28mer
